Source: patent publication US12227495B2, “Herbicidal compounds” (SYNGENTA CROP PROTECTION AG, priority 2018, dated 2025)

What was measured:
Assay type in all cases: in vivo
Solanum nigrum (SOLNI) [1] = assay: Post-emergence herbicide test, glasshouse, percentage damage; conditions: 1000 g/ha, evaluated after 13 days
How it was run: (§1)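 Pot-grown plants were sprayed at 500 g/ha unless otherwise stated, in acetone/water (50:50) with 0.5% Tween 20. Pre-emergence spraying was 1 day after sowing and post-emergence after 8 days, in a glasshouse at 24/16° C, 14 h light, 65% humidity. Percentage damage was scored 13 days later on a 1–5 scale (5=81-100%).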

[2] = system: Amaranthus retoflexus (AMARE); assay: as above; conditions: 1000 g/ha, evaluated after 13 days
How it was run: as §1

Lolium perenne (LOLPE) [3] = assay: as above; conditions: 1000 g/ha, evaluated after 13 days
How it was run: as §1

[4] = system: Ipomoea hederacea (IPOHE); assay: as above; conditions: 1000 g/ha, evaluated after 13 days
How it was run: as §1

Setaria faberi (SETFA) [5] = assay: as above; conditions: 1000 g/ha, evaluated after 13 days
How it was run: as §1

[6] = system: Echinochloa crus-galli (ECHCG); assay: as above; conditions: 1000 g/ha, evaluated after 13 days
How it was run: as §1

Solanum nigrum (SOLNI) [7] = assay: Pre-emergence herbicide test, glasshouse, percentage damage; conditions: rate 1000 g/ha, evaluated after 13 days
How it was run: as §1

[8] = system: Amaranthus retoflexus (AMARE); assay: as above; conditions: rate 1000 g/ha, evaluated after 13 days
How it was run: as §1

Lolium perenne (LOLPE) [9] = assay: as above; conditions: rate 1000 g/ha, evaluated after 13 days
How it was run: as §1

[10] = system: Ipomoea hederacea (IPOHE); assay: as above; conditions: rate 1000 g/ha, evaluated after 13 days
How it was run: as §1

Setaria faberi (SETFA) [11] = assay: as above; conditions: rate 1000 g/ha, evaluated after 13 days
How it was run: as §1

[12] = system: Echinochloa crus-galli (ECHCG); assay: as above; conditions: rate 1000 g/ha, evaluated after 13 days
How it was run: as §1

SMILES | percentage damage caused to the plant, SOLNI (Solanum nigrum (SOLNI) [1]) | percentage damage caused to the plant, AMARE [2] | percentage damage caused to the plant, LOLPE (Lolium perenne (LOLPE) [3]) | percentage damage caused to the plant, IPOHE [4] | percentage damage caused to the plant, SETFA (Setaria faberi (SETFA) [5]) | percentage damage caused to the plant, ECHCG [6] | Pre-emergence Test SOLNI percentage damage (five point scale) (Solanum nigrum (SOLNI) [7]) | Pre-emergence Test AMARE percentage damage (five point scale) [8] | Pre-emergence Test LOLPE percentage damage (five point scale) (Lolium perenne (LOLPE) [9]) | Pre-emergence Test IPOHE percentage damage (five point scale) [10] | Pre-emergence Test SETFA percentage damage (five point scale) (Setaria faberi (SETFA) [11]) | Pre-emergence Test ECHCG percentage damage (five point scale) [12]
Fc1cc(Cl)cnc1Oc1cccc(F)c1-c1ncc(C(F)F)o1 [Compound A35] | 5 (5=81-100%) | 5 (5=81-100%) | 1 (1=0-20%) | 2 (2=21-40%) | 4 (4=61-80%) | 1 (1=0-20%) | 5 (5=81-100%) | 3 (3=41-60%) | 1 (1=0-20%) | 1 (1=0-20%) | 5 (5=81-100%) | 5 (5=81-100%)
COc1cccc(Oc2ncc(Cl)cc2F)c1-n1cc(C(F)(F)F)cn1 [Compound A36, 5-chloro-3-fluoro-2-[3-methoxy-2-[4-(trifluoromethyl)pyrazol-1-yl]phenoxy]pyridine] | 5 (5=81-100%) | 5 (5=81-100%) | 4 (4=61-80%) | 2 (2=21-40%) | 5 (5=81-100%) | 4 (4=61-80%) | 5 (5=81-100%) | 5 (5=81-100%) | 3 (3=41-60%) | 5 (5=81-100%) | 5 (5=81-100%) | 5 (5=81-100%)
N#Cc1cc(Cl)cnc1Oc1cccc(F)c1-c1cc(C(F)F)no1 [Compound A37] | 5 (5=81-100%) | 5 (5=81-100%) | 4 (4=61-80%) | 5 (5=81-100%) | 5 (5=81-100%) | 4 (4=61-80%) | 5 (5=81-100%) | 5 (5=81-100%) | 5 (5=81-100%) | 5 (5=81-100%) | 5 (5=81-100%) | 5 (5=81-100%)
O=[N+]([O-])c1cc(Cl)cnc1Oc1cccc(F)c1-c1cc(C(F)F)no1 [Compound A38] | 5 (5=81-100%) | 5 (5=81-100%) | 1 (1=0-20%) | 1 (1=0-20%) | 1 (1=0-20%) | 1 (1=0-20%) | 1 (1=0-20%) | 4 (4=61-80%) | 1 (1=0-20%) | 1 (1=0-20%) | 1 (1=0-20%) | 1 (1=0-20%)
CS(=O)(=O)c1cnc(Oc2cccc(F)c2-c2cc(C(F)F)no2)c(F)c1 [Compound A39] | 3 (3=41-60%) | 3 (3=41-60%) | 1 (1=0-20%) | 1 (1=0-20%) | 1 (1=0-20%) | 1 (1=0-20%) | 1 (1=0-20%) | 5 (5=81-100%) | 1 (1=0-20%) | 1 (1=0-20%) | 1 (1=0-20%) | 1 (1=0-20%)
CS(=O)(=O)c1ccc(Oc2cccc(F)c2-c2cc(C(F)F)no2)nc1 [Compound A40] | 4 (4=61-80%) | 3 (3=41-60%) | 1 (1=0-20%) | 1 (1=0-20%) | 1 (1=0-20%) | 1 (1=0-20%) | 1 (1=0-20%) | 2 (2=21-40%) | 1 (1=0-20%) | 1 (1=0-20%) | 1 (1=0-20%) | 1 (1=0-20%)
